{"source": "patent US6887713B2", "about": "“Bioactive chip mass spectrometry” (Intrinsic Bioprobes, Inc., priority 2000, dated 2005)", "molecular_target": "streptavidin (Streptomyces avidinii, UniProt P22629)", "sequence (P22629 25-183, species assumed)": "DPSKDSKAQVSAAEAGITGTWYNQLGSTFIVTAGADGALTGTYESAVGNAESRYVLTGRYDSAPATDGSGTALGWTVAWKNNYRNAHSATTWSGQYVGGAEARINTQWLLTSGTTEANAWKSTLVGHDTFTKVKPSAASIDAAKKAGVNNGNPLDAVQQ", "conditions": "mixture of 10.0 μM Pep K and 10.0 μM Pep R, 60 s at 20 μl/min, then ~15 s running buffer; immobilized streptavidin", "procedure": "A bioactive chip BC containing streptavidin-derivatized separation site SS was exposed for 60 s (at a flow rate of 20 μl/min) to a mixture containing 10.0 μM Pep K and 10.0 μM Pep R, after which a ˜15 s exposure to the running buffer followed. The separation site SS on the bioactive chip BC was then MALDI-TOF MS analyzed.\nThe fitting parameters are listed in the figure and were used with starting concentrations of [Pep K]=7 uM; [Pep K(ox)]=3 uM; and [Pep R & Pep R(ox)]=10 uM. A criterion was used in which the relative quantities of the individual species at the end of the run corresponded to the relative quantities estimated from the mass spectrum taken from the surface of the separation site SS."}
{"sequence": "SGTSFHPQWIMVGRVATNSP [PepR]", "values": [{"measurement": "retention by / affinity for streptavidin (change in MALDI-TOF ion signal intensity ratio before vs after interaction)", "value": "preferential retention"}]}
